Patent US20240327383A1 (priority 2021, published 2024)
“And” between values parts separate entries of the source, which are not always exact repeats. Equal entries are not always repeated.

Experiments:
SNI neuropathic pain [1] = tested on: SNI neuropathic pain; design: species or system rats; conditions: rat, in vivo
SNI neuropathic pain [2] = tested on: SNI neuropathic pain; design: species or system rats; conditions: rat, in vivo; remark: listed apart in the source

NCC1(CC(=O)O)CCCCC1 [Gabapentin]
mean relative analgesic rate of foot weight bearing (SNI neuropathic pain [1]): 20.85% and 17.55% and 14.07% | mean relative analgesic rate of Von Frey Hairs (SNI neuropathic pain [2]): 29.71% and 36.26%
